Reference: ChEMBL document CHEMBL5046293 (J Med Chem, 2022)

Assays:
[1] = Cytotoxicity against human BLEC monolayers at 50 uM incubated for 1 hr; assay type: toxicity, cell-based; conditions: brain-like endothelial cells
[2] = Stability of compound in 0.01 M PBS buffer at 50 uM measured after 52 hrs by LC-MS analysis (reference value: 99.2 %); assay type: physicochemical; conditions: read-out: Stability
[3] = Stability of compound in 0.01 M PBS buffer at 50 uM measured after 4 hrs by LC-MS analysis (reference value: 99.2 %); assay type: physicochemical; conditions: read-out: Stability
[4] = Stability of compound in 0.01 M PBS buffer at 50 uM measured after 4 hrs by LC-MS analysis (reference value: 98.7 %); assay type: physicochemical; conditions: read-out: Stability
[5] = Stability of compound in 0.01 M PBS buffer at 50 uM measured after 52 hrs by LC-MS analysis (reference value: 98.7 %); assay type: physicochemical; conditions: read-out: Stability

Structure (SMILES)	Activity [1]	other results
OC[C@H]1O[C@@H](OCCCCc2cn(CCCCc3ccc(O)c(/C=N/O)n3)nn2)[C@H](O)[C@@H](O)[C@@H]1O	Non-Toxic	
OC[C@H]1O[C@@H](OCCCCc2cn(CCCc3ccc(O)c(/C=N/O)n3)nn2)[C@H](O)[C@@H](O)[C@@H]1O	Non-Toxic	remaining at 52 h, 50 µM [2]: 90.9%; remaining at 4 h, 50 µM [3]: 96.7%
OC[C@H]1O[C@@H](OCCCCCc2ccc(O)c(/C=N/O)n2)[C@H](O)[C@@H]1O	Non-Toxic	
Cn1cc(CCCCO[C@@H]2O[C@H](CO)[C@@H](O)[C@H](O)[C@H]2O)nn1	Non-Toxic	
Cn1cc(CCCCOC[C@H]2O[C@@H](O)[C@H](O)[C@@H](O)[C@@H]2O)nn1	Non-Toxic	
OC[C@H]1O[C@@H](OCCCCc2ccc(O)c(/C=N/O)n2)[C@H](O)[C@@H](O)[C@@H]1O	Non-Toxic	
C#CCCCCO[C@@H]1O[C@H](CO)[C@@H](O)[C@H]1O	Non-Toxic	
C#CCCCCO[C@H]1O[C@H](CO)[C@@H](O)[C@H]1O	Non-Toxic	
Cn1cc(CCCCO[C@@H]2O[C@H](CO)[C@@H](O)[C@H]2O)nn1	Non-Toxic	
OC[C@H]1O[C@@H](OCCCCc2cn(CCCCc3ccc(O)c(/C=N/O)n3)nn2)[C@H](O)[C@@H]1O	Non-Toxic	
Cn1cc(CCO[C@@H]2O[C@H](CO)[C@@H](O)[C@H](O)[C@H]2O)nn1	Non-Toxic	
Cn1cc(CCCCO[C@H]2O[C@H](CO)[C@@H](O)[C@H](O)[C@H]2O)nn1	Non-Toxic	
C#CCCO[C@@H]1O[C@H](CO)[C@@H](O)[C@H](O)[C@H]1O	Non-Toxic	
OC[C@H]1O[C@H](OCCCCc2cn(CCCCc3ccc(O)c(/C=N/O)n3)nn2)[C@H](O)[C@@H](O)[C@@H]1O	Non-Toxic	
C#CCCCCO[C@@H]1O[C@H](CO)[C@@H](O)[C@H](O)[C@H]1O	Non-Toxic	
OC[C@H]1O[C@@H](OCCCc2ccc(O)c(/C=N/O)n2)[C@H](O)[C@@H](O)[C@@H]1O	Non-Toxic	remaining at 4 h, 50 µM [4]: 97.8%; remaining at 52 h, 50 µM [5]: 91.4%
